The record followed here is patent US20050245527A1, “Nitrogen containing heterocyclic compounds and medicines containing the same” (priority 2002, published 2005).

Assay [1] deals with left saphenous nerve of rats (ectopic firing). In words: Inhibition of ectopic firing. The class given is in vivo. The settings on record: Rattus norvegicus, iv; rats with cut left saphenous nerve, urethane anesthesia, compound via catheter in right cervical vein, number of firings in 10 seconds; read-out: Inhibition of ectopic firing (ID50). Here is the method: <Inhibition of Ectopic Firing>
(1) The inhibitory effect on ectopic firing was evaluated by the following method, with reference to Burchiel, K J., Exp. Neurol., 102, 249-253 (1988).
(2) The left saphenous nerve of rats, in which ectopic firing was observed, was cut near the knee joint, and approximately 3 mm was cut off to avoid reattachment of the cut nerve. After more than a week, the left saphenous nerve was exposed under urethane (1 g/kg body weight) anesthesia, and the proximal part up to approximately 1 cm from the cut site was detached from the surrounding tissue. A catheter was inserted in the right cervical vein beforehand for administration of the compound.
(3) The detached nerve was placed on a platinum hook electrode and wetted with liquid paraffin to avoid drying of the nerve. The electrode was connected to a microelectrode amplifier, and the change in potential was recorded from an oscilloscope through an A/D converter onto a computer. The recorded nerve firing was evaluated based on the number of firings in 10 seconds, using analyzing software (AcqKnowledge).

Another assay deals with sodium channels. The format is cell-based. Particulars: read-out: IC50 (μM), sodium channel-inhibiting activity; rat fetal cultured hippocampal neurons, SBFI fluorescence in the presence of 4-aminopyridine, 5 minutes after addition, 1 μM tetrodotoxin = 100%.

A word on the IC50: it is the concentration at which inhibition is half-maximal. Regarding `C[C@H]1C[C@@H](C(=O)Cc2ccccc2F)CCN1Cc1ncc[nH]c1=O` (relative stereo) [Example 415, cis-3-[4-[2-(2-Fluorophenyl)acetyl]-2-methylpiperidino]methyl-1H-pyrazin-2-one], the ED50 in assay [1] was less than 0.5 mg/kg. Besides, the IC50 with sodium channels was 4.6 µM. Taken in the same sequence, the figures for `O=c1[nH]cccc1CN1CCC(F)(COc2ccccc2F)CC1` [Example 124, 3-[4-Fluoro-4-(2-fluorophenoxymethyl)piperidino]methyl-1H-pyridin-2-one] were less than 0.5 mg/kg and 7.8 µM. Taken in the same sequence, the figures for `O=c1[nH]cccc1CN1CC2CCCC(C1)C2/C=C/c1ccccc1F` (stereo not drawn) [Example 129, anti-(E)-3-[9-[2-(2-Fluorophenyl)vinyl]-3-azabicyclo[3.3.1]non-3-yl]methyl-1H-pyridin-2-one] were 0.5 to 1 mg/kg and 2.1 µM. In the case of `O=C(O)C(=O)O.O=c1[nH]ccnc1CN1CCC(COc2ccccc2F)C1` (stereo not drawn) [Example 132, 3-[3-(2-Fluorophenoxymethyl)pyrrolidino]methyl-1H-pyrazin-2-one oxalate], the ED50 in assay [1] is 0.5 to 1 mg/kg. Besides, the IC50 in the assay on sodium channels is 6.2 µM. In the case of `O=c1[nH]ccnc1CN1CCC(CCc2ccccc2F)C1` (stereo not drawn) [Example 134, 3-[3-[2-(2-Fluorophenyl)ethyl]pyrrolidino]methyl-1H-pyrazin-2-one], the ED50 in assay [1] was 0.5 to 1 mg/kg. The IC50 with sodium channels turned out to be 3.1 µM. In the case of `COc1ccccc1CCC1CCN(Cc2ncc[nH]c2=O)C1.O=C(O)C(=O)O` (stereo not drawn) [Example 135, 3-[3-[2-(2-Methoxyphenyl)ethyl]pyrrolidino]methyl-1H-pyrazin-2-one oxalate], in assay [1], the ED50 is less than 0.5 mg/kg. In addition, the 50% inhibitory concentration (IC50) in the assay with sodium channels stood at 4 µM. The like results for `Cc1ccccc1OCC1CCN(Cc2ncc[nH]c2=O)C1.O=C(O)C(=O)O` (stereo not drawn) [Example 136, 3-[3-(2-Methylphenoxymethyl)pyrrolidino]methyl-1H-pyrazin-2-one oxalate] were, in that order, 0.5 to 1 mg/kg and 4.7 µM. Taken in the same sequence, the figures for `O=c1[nH]ccnc1CN1CCC(CCc2cccc3c2OCC3)CC1` [Example 140, 3-[4-[2-(2,3-Dihydrobenzofuran-7-yl)ethyl]piperidino]methyl-1H-pyrazin-2-one] were less than 0.5 mg/kg and 5.6 µM. Taken in the same sequence, the figures for `O=c1[nH]ccnc1CN1CCC(COc2ccccc2F)CC1` [Example 142, 3-[4-(2-Fluorophenoxymethyl)piperidino]methyl-1H-pyrazin-2-one] were less than 0.5 mg/kg and 4.2 µM. `COc1ccccc1OCC1CCN(Cc2ncc[nH]c2=O)CC1` [Example 143, 3-[4-(2-Methoxyphenoxymethyl)piperidino]methyl-1H-pyrazin-2-one]: in assay [1], the ED50 is less than 0.5 mg/kg. Besides, the half-maximal inhibitory concentration (IC50) in the assay on sodium channels was 3.1 µM. `COc1ccccc1C(=O)CC1CCN(Cc2ncc[nH]c2=O)CC1` [Example 145, 3-[4-[2-(2-Methoxyphenyl)-2-oxoethyl]piperidino]methyl-1H-pyrazin-2-one]: in assay [1], the ED50 was in the range of 0.5 to 1 mg/kg. Further, the IC50 in the assay with sodium channels is 9.5 µM. Taken in the same sequence, the figures for `O=c1[nH]ccnc1CN1CCC(CCc2cccc3ccoc23)CC1` [Example 146, 3-[4-[2-(Benzofuran-7-yl)ethyl]piperidino]methyl-1H-pyrazin-2-one] were less than 0.5 mg/kg and 2 µM. As to `Cc1ccccc1OCC1CCN(Cc2ncc[nH]c2=O)CC1` [Example 147, 3-[4-(2-Methylphenoxymethyl)piperidino]methyl-1H-pyrazin-2-one], the ED50 in assay [1] was less than 0.5 mg/kg. In the assay with sodium channels, the half-inhibitory concentration (IC50) was 2.5 µM. The like results for `O=c1[nH]ccnc1CN1CCC(COc2cc(F)ccc2F)CC1` [Example 151, 3-[4-(2,5-Difluorophenoxymethyl)piperidino]methyl-1H-pyrazin-2-one] were, in that order, 0.5 to 1 mg/kg and 2.9 µM.

`Cc1ccccc1COC1CCN(Cc2ncc[nH]c2=O)CC1` [Example 152, 3-[4-(2-Methylbenzyloxy)piperidino]methyl-1H-pyrazin-2-one]: the ED50 in assay [1] is 0.5 to 1 mg/kg. Further, the IC50 in the assay with sodium channels worked out at 5.3 µM. Turning to `Cc1cccc(OCC2CCN(Cc3ncc[nH]c3=O)CC2)c1` [Example 153, 3-[4-(3-Methylphenoxymethyl)piperidino]methyl-1H-pyrazin-2-one], the ED50 in assay [1] was in the range of 0.5 to 1 mg/kg. In addition, in the assay on sodium channels, the half-inhibitory concentration (IC50) turned out to be 4.1 µM.

For the molecule `Cc1ccccc1OCC1CCCN(Cc2ncc[nH]c2=O)C1` (stereo not drawn) [Example 154, 3-[3-(2-Methylphenoxymethyl)piperidino]methyl-1H-pyrazin-2-one], in assay [1], the ED50 fell in the range of 0.5 to 1 mg/kg. In addition, the half-inhibitory concentration (IC50) with sodium channels was determined as 3.1 µM.

Take `O=c1[nH]ccnc1CN1CCCC(CCc2ccccc2F)C1` (stereo not drawn) [Example 156, 3-[3-[2-(2-Fluorophenyl)ethyl]piperidino]methyl-1H-pyrazin-2-one]: in assay [1], the ED50 lay within 0.5 to 1 mg/kg. Also, the IC50 with sodium channels came out at 4.5 µM. Taken in the same sequence, the figures for `Cc1ccsc1/C=C/C1CCN(Cc2ncc[nH]c2=O)CC1` [Example 157, (E)-3-[4-[2-(3-Methyl-2-thienyl)vinyl]piperidino]methyl-1H-pyrazin-2-one] were less than 0.5 mg/kg and 3.6 µM. Consider `O=c1[nH]ccnc1CN1CCC(COc2ccccc2Cl)CC1` [Example 158, 3-[4-(2-Chlorophenoxymethyl)piperidino]methyl-1H-pyrazin-2-one], for which the ED50 in assay [1] is less than 0.5 mg/kg. Further, in the assay on sodium channels, the half-inhibitory concentration (IC50) was 3.7 µM. In the case of `O=c1[nH]ccnc1CN1CCC(COCc2ccccc2F)CC1` [Example 160, 3-[4-(2-Fluorobenzyloxymethyl)piperidino]methyl-1H-pyrazin-2-one], the ED50 in assay [1] was in the range of 0.5 to 1 mg/kg. The concentration for half-maximal inhibition (IC50) in the assay on sodium channels was determined as 3.5 µM.

As for `O=c1[nH]ccnc1CN1CCC(COc2cccc(F)c2)CC1` [Example 162, 3-[4-(3-Fluorophenoxymethyl)piperidino]methyl-1H-pyrazin-2-one], the ED50 in assay [1] was 0.5 to 1 mg/kg. In addition, in the assay with sodium channels, the IC50 was 4.6 µM. Regarding `O=c1cncc(CCN2CCC(COc3ccccc3F)CC2)[nH]1` [Example 233, 6-[2-[4-(2-Fluorophenoxymethyl)piperidino]ethyl]-1H-pyrazin-2-one], the ED50 in assay [1] is less than 0.5 mg/kg. As for `O=c1cncc(CCN2CCC(/C=C/c3ccccc3F)CC2)[nH]1` [Example 234, (E)-6-[2-[4-(2-(2-Fluorophenyl)vinyl]piperidino]ethyl]-1H-pyrazin-2-one], the ED50 in assay [1] fell in the range of 0.5 to 1 mg/kg. Same read-out and setting: to `O=C(Cc1ccccc1F)C1CCN(CCc2cncc(=O)[nH]2)CC1` [Example 237, 6-[2-[4-[2-(2-Fluorophenyl)acetyl]piperidino]ethyl]-1H-pyrazin-2-one] belongs 0.5 to 1 mg/kg. Same read-out and setting: in the case of `O=c1cncc(CCN2CCC(COc3ccc(F)cc3)CC2)[nH]1` [Example 246, 6-[2-[4-(4-Fluorophenoxymethyl)piperidino]ethyl]-1H-pyrazin-2-one] it was 0.5 to 1 mg/kg. Consider `Cc1ccccc1OCC1(O)CCN(Cc2ccc[nH]c2=O)CC1` [Example 252, 3-[4-Hydroxy-4-(2-methylphenoxymethyl)piperidino]methyl-1H-pyridin-2-one], for which the ED50 in assay [1] was in the range of 0.5 to 1 mg/kg. Same read-out and setting: in the case of `O=c1[nH]cccc1CN1CCC(CCc2ccccc2)(COc2ccccc2F)CC1` [Example 257, 3-[4-(2-Fluorophenoxymethyl)-4-(2-phenylethyl)piperidino]methyl-1H-pyridin-2-one] it was less than 0.5 mg/kg; in that of `Cc1ccccc1C#CC1(O)CCN(Cc2ccc[nH]c2=O)CC1` [Example 259, 3-[4-Hydroxy-4-[(2-methylphenyl)ethynyl]piperidino]methyl-1H-pyridin-2-one], less than 0.5 mg/kg.
